Test [1] concerns the target T1, PDZ-domain polypeptide (GST/PDZ fusion protein) (Homo sapiens, UniProt Q5TCQ9).
T1 construct: made in house; host or cells: E. coli (DH5alpha, BL21 or JM109)
T1 sequence (Q5TCQ9 1-1481): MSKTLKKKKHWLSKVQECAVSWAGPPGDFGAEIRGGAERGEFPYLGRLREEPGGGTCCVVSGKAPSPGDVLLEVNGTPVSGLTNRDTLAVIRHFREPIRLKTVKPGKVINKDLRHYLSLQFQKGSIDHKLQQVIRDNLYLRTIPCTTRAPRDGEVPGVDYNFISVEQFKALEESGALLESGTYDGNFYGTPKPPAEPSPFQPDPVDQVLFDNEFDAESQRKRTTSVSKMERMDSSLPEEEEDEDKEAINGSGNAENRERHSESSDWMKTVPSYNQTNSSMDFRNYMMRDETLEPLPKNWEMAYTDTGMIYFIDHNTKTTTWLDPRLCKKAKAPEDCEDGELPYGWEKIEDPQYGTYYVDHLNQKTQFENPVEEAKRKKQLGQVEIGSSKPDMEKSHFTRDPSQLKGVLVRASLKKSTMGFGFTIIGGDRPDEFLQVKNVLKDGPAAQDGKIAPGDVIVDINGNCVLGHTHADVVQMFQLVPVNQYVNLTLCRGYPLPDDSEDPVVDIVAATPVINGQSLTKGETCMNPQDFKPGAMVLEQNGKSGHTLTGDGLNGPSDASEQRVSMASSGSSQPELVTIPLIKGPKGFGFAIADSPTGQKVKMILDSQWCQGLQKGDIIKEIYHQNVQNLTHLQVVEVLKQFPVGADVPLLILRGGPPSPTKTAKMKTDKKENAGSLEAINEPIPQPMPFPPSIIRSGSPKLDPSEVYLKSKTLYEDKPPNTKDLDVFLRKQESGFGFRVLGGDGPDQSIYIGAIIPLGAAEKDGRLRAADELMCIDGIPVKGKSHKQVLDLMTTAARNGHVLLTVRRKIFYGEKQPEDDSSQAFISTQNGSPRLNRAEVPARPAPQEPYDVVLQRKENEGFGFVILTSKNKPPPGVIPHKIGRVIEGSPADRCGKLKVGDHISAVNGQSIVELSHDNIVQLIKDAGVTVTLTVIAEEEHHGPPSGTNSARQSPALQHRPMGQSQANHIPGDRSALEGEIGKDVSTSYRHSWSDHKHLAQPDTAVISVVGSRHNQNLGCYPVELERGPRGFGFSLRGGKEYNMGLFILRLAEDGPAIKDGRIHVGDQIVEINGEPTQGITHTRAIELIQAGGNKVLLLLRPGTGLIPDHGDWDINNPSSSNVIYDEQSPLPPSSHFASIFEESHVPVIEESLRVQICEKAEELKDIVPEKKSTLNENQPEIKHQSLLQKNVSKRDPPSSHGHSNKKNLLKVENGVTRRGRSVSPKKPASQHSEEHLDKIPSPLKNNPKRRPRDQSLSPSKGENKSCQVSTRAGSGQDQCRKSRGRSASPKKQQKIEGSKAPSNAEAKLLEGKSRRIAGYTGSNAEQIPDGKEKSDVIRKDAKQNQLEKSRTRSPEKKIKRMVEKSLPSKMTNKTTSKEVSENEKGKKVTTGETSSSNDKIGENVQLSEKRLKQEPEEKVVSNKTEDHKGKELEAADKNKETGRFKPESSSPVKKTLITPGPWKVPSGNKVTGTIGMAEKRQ
The test is described as follows: Apparent affinity (Kd) by titration of PL peptide in the G assay. The format is binding. In short, it runs like this: (§1)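 A fixed concentration of GST/PDZ fusion protein, 5 ug/ml by default, was mixed in solution with increasing labeled PL peptide (e.g. 0.1 uM-1 mM). Reaction times ranged from 10 minutes to 2 days at 4-37° C. Complexes were separated from free peptide and detected via the label as in the G assay, apparent affinity coming from the saturating concentration.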

The target of test [2] is T2, PDZ-domain polypeptide (GST/PDZ fusion protein) (Homo sapiens, UniProt Q12923).
T2 construct: made in house; host or cells: E. coli (DH5alpha, BL21 or JM109)
T2 sequence (Q12923 whole entry, the tested form may be a part): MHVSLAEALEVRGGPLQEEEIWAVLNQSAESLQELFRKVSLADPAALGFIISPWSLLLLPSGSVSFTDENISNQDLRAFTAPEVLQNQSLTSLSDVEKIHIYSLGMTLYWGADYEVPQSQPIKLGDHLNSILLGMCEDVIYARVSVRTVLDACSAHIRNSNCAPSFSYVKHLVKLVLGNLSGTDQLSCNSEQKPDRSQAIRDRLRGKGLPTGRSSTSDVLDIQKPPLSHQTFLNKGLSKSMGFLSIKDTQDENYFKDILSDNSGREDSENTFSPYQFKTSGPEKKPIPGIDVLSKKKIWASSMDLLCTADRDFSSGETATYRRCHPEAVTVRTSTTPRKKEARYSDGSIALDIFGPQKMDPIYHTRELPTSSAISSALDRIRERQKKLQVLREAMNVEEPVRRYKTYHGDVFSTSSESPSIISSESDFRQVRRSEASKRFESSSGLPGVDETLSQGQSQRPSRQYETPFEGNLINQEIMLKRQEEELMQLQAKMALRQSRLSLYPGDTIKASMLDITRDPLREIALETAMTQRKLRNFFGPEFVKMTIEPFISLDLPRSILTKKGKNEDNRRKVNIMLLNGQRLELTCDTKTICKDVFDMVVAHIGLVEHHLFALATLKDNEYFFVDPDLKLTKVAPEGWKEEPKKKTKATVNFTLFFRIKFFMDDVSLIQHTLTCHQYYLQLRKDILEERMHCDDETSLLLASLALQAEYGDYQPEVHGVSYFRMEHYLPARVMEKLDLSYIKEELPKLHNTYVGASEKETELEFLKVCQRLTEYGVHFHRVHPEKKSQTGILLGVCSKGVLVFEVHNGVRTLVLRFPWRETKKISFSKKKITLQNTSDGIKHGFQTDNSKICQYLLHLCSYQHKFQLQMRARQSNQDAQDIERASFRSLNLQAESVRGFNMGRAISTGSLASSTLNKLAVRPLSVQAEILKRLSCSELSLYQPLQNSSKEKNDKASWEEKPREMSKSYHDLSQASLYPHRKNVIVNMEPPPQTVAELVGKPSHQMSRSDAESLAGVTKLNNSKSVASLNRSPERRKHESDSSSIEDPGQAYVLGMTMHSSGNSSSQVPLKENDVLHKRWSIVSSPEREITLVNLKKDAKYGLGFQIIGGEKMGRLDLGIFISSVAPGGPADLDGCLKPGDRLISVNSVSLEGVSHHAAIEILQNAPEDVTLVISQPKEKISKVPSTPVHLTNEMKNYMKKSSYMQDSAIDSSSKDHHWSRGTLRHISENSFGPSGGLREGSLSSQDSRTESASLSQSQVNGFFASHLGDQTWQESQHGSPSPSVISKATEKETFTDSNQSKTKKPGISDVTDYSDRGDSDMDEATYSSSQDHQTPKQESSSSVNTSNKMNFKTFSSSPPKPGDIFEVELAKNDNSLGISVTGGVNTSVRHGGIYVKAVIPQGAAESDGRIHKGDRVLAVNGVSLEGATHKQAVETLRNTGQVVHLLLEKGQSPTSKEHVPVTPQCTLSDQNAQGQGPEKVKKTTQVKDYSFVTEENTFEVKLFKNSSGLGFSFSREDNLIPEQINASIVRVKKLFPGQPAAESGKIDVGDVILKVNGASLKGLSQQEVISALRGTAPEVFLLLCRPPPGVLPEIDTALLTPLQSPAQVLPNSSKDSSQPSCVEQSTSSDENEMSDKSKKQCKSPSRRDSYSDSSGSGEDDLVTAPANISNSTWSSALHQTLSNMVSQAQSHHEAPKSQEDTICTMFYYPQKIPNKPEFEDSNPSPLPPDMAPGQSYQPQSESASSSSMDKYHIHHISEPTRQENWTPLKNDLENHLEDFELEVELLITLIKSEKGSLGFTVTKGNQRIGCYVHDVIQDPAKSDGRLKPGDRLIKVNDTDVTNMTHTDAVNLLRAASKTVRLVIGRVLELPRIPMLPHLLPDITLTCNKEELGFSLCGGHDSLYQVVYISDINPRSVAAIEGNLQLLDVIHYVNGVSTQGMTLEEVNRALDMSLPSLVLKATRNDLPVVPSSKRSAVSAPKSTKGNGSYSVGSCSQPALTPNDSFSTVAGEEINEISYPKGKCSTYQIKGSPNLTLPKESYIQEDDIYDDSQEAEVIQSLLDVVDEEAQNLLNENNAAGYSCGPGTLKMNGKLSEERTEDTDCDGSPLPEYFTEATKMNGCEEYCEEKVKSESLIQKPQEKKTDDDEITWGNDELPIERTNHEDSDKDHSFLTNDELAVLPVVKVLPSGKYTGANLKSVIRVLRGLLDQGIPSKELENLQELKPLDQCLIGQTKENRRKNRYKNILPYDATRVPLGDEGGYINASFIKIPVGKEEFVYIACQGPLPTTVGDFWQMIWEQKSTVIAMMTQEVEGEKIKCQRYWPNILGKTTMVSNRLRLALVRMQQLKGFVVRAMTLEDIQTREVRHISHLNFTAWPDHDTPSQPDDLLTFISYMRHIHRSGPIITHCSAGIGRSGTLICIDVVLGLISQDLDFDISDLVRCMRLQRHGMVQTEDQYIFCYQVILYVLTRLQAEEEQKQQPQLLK
Described as above. The format is binding. Put shortly: as §1

The mark [3] stands for this setting: PDZ PTPL-1, PDZ Domain 2, read-out: Peptide Optimal Conc (Kd by titration of the PL peptide).

The source of these data is patent publication US20050282743A1, “Molecular interactions in cells” (Arbor Vita Corporation, priority 2001, published 2005).

Where two headings read alike, the source gives them in different places. Peptide text beside a SMILES is read from it. * marks the point of attachment. Biotin = O=C1N[C@H]2[C@H](CS[C@H]2CCCCC(=O)*)N1

`CC(C)C[C@H](NC(=O)[C@H](Cc1c[nH]c2ccccc12)NC(=O)[C@H](Cc1c[nH]cn1)NC(=O)[C@H](CCCNC(=N)N)NC(=O)[C@H](CC(C)C)NC(=O)[C@@H](NC(=O)[C@H](Cc1ccccc1)NC(=O)[C@H](CCC(N)=O)NC(=O)[C@H](CCCNC(=N)N)NC(=O)[C@@H](NC(=O)[C@H](CCC(=O)O)NC(=O)CNC(=O)[C@H](CCCNC(=N)N)NC(=O)[C@H](CC(=O)O)NC(=O)[C@@H](NC(=O)[C@H](CC(C)C)NC(=O)[C@H](CCC(=O)O)NC(=O)[C@H](CCCNC(=N)N)NC(=O)CCCC[C@@H]1SC[C@@H]2NC(=O)N[C@@H]21)C(C)C)C(C)C)[C@@H](C)O)C(=O)N[C@@H](CCCCN)C(=O)N[C@H](C(=O)O)C(C)C` [Dopamine transporter (Na+-dependent)] (Biotin-RELVDRGEVRQFTLRHWLKV-OH; C-terminus assumed): the Kd in test [1] (PDZ KIAA1634, PDZ Domain 1, read-out: Peptide Optimal Conc (Kd by titration of the PL peptide)) was determined as 900 nM; in test [2] (PDZ PTPL-1, PDZ Domain 4, read-out: Peptide Optimal Conc (Kd by titration of the PL peptide)) it was 400 nM. For `CC[C@H](C)[C@H](NC(=O)[C@H](Cc1c[nH]cn1)NC(=O)[C@H](C)NC(=O)[C@H](C)NC(=O)[C@H](CO)NC(=O)[C@@H]1CCCN1C(=O)[C@H](CCCNC(=N)N)NC(=O)[C@H](CC(=O)O)NC(=O)[C@H](CCCCN)NC(=O)[C@@H]1CCCN1C(=O)[C@H](CC(=O)O)NC(=O)[C@H](CCC(=O)O)NC(=O)CCCC[C@@H]1SC[C@@H]2NC(=O)N[C@@H]21)C(=O)N[C@H](C(=O)N[C@@H](CCC(=O)O)C(=O)N[C@@H](C)C(=O)N[C@@H](CC(C)C)C(=O)N[C@@H](CCC(=O)O)C(=O)N[C@H](C(=O)N[C@@H](CC(=O)O)C(=O)N[C@H](C(=O)O)C(C)C)[C@@H](C)O)C(C)C` [PDZ-binding kinase (PBK)] (Biotin-EDPKDRPSAAHIVEALETDV-OH; C-terminus assumed), the Kd in test [1] (PDZ KIAA1634, PDZ Domain 2, read-out: Peptide Optimal Conc (non-zero value: Kd by titration of the PL peptide)) was found to be 7000 nM; in test [2] (PDZ PTPL-1, PDZ Domain 2, read-out: Peptide Optimal Conc (non-zero value: Kd by titration of the PL peptide)), 6000 nM.

For `CC[C@H](C)[C@H](NC(=O)[C@H](CCCCN)NC(=O)[C@@H](NC(=O)[C@H](CO)NC(=O)[C@@H]1CCCN1C(=O)[C@H](Cc1ccccc1)NC(=O)[C@@H](NC(=O)[C@@H](NC(=O)[C@H](CCCNC(=N)N)NC(=O)[C@H](CCC(=O)O)NC(=O)[C@H](CC(C)C)NC(=O)[C@H](CC(C)C)NC(=O)[C@H](CC(C)C)NC(=O)[C@@H](NC(=O)CNC(=O)[C@@H](NC(=O)CCCC[C@@H]1SC[C@@H]2NC(=O)N[C@@H]21)C(C)C)[C@@H](C)O)C(C)C)[C@@H](C)CC)C(C)C)C(=O)N[C@@H](C)C(=O)N[C@H](C(=O)N[C@@H](CC(C)C)C(=O)N[C@H](C(=O)O)C(C)C)[C@@H](C)O` [Adenovirus E4 Type9], the Kd came to 150 nM in test [1] (PDZ KIAA1634, PDZ Domain 2, Protein Optimal Conc 5, read-out: Peptide Optimal Conc (Kd by titration of the PL peptide)); 200 nM in test [1] (PDZ KIAA1634, PDZ Domain 4, Protein Optimal Conc 5, read-out: Peptide Optimal Conc (Kd by titration of the PL peptide)); 200 nM in test [2] (PDZ PTPL-1, PDZ Domain 2, Protein Optimal Conc 5, read-out: Peptide Optimal Conc (Kd by titration of the PL peptide)). In the case of `CC[C@H](C)[C@H](NC(=O)[C@H](Cc1ccc(O)cc1)NC(=O)[C@H](CC(C)C)NC(=O)[C@H](CCC(N)=O)NC(=O)[C@H](Cc1c[nH]cn1)NC(=O)[C@H](CO)NC(=O)[C@H](C)NC(=O)[C@H](CC(C)C)NC(=O)[C@@H](NC(=O)[C@H](CC(=O)O)NC(=O)[C@H](CCSC)NC(=O)[C@H](Cc1ccccc1)NC(=O)[C@@H]1CCCN1C(=O)[C@H](CCCNC(=N)N)NC(=O)[C@@H](NC(=O)[C@H](CC(C)C)NC(=O)[C@H](CC(N)=O)NC(=O)[C@H](CC(=O)O)NC(=O)[C@@H](NC(=O)[C@H](CO)NC(=O)CCCC[C@@H]1SC[C@@H]2NC(=O)N[C@@H]21)[C@@H](C)O)C(C)C)[C@@H](C)O)C(=O)O` [presenilin-2] (Biotin-STDNLVRPFMDTLASHQLYI-OH; C-terminus assumed), the Kd in test [2] (PDZ PTPL-1, PDZ Domain 4, titration of the PL peptide, read-out: Peptide Optimal Conc (Kd, dissociation constant)) amounted to 8000 nM. For the compound `CC(C)C[C@H](NC(=O)[C@H](CC(C)C)NC(=O)[C@@H](NC(=O)[C@H](CC(=O)O)NC(=O)CCCC[C@@H]1SC[C@@H]2NC(=O)N[C@@H]21)[C@@H](C)O)C(=O)N[C@@H](CC(C)C)C(=O)N[C@H](C(=O)N[C@@H](CCC(=O)O)C(=O)N[C@@H](CC(N)=O)C(=O)N[C@@H](CCC(=O)O)C(=O)NCC(=O)N[C@@H](CC(=O)O)C(=O)N[C@@H](CCCCN)C(=O)N[C@H](C(=O)N[C@@H](CCC(=O)O)C(=O)N[C@@H](CCC(=O)O)C(=O)N[C@@H](CCC(N)=O)C(=O)N[C@H](C(=O)N[C@@H](CO)C(=O)N[C@@H](Cc1ccc(O)cc1)C(=O)N[C@H](C(=O)O)C(C)C)C(C)C)[C@@H](C)O)[C@@H](C)O` [5H2B_HUMAN] (Biotin-DTLLLTENEGDKTEEQVSYV-OH; C-terminus assumed), the Kd in test [2] (setting [3]) worked out at 200 nM. For `CC[C@H](C)[C@H](NC(=O)[C@H](CCC(N)=O)NC(=O)[C@@H](NC(=O)[C@H](Cc1c[nH]cn1)NC(=O)[C@H](CCC(N)=O)NC(=O)[C@H](CC(=O)O)NC(=O)[C@H](CCC(=O)O)NC(=O)[C@H](CC(=O)O)NC(=O)[C@H](Cc1ccccc1)NC(=O)[C@@H]1CCCN1C(=O)[C@H](CCC(=O)O)NC(=O)[C@H](CC(N)=O)NC(=O)[C@H](CCC(=O)O)NC(=O)[C@@H]1CCCN1C(=O)[C@H](CC(=O)O)NC(=O)[C@H](CO)NC(=O)[C@H](CC(=O)O)NC(=O)CCCC[C@@H]1SC[C@@H]2NC(=O)N[C@@H]21)[C@@H](C)O)C(=O)N[C@H](C(=O)N[C@@H](CCCCN)C(=O)N[C@H](C(=O)O)C(C)C)[C@@H](C)O` [PTEN], the Kd in test [2] (setting [3]) was 300 nM.
